In this assay the test system is HIV-1. Briefly: Single-round infectious HIV-1 luciferase reporter virus infection of HeLa CD4 cells. Format: cell-based. The conditions noted are these: Human immunodeficiency virus 1, HeLa, 72 h, read-out: EC50 Group from Table 1. The protocol: • Virus production—Human embryonic Kidney cell line, 293T, was propagated in Dulbecco's Modified Eagle Medium (Invitrogen, Carlsbad, Calif.) containing 10% fetal Bovine serum (FBS, Sigma, St. Louis, Mo.). • Virus infection—Human epithelial cell line, HeLa, expressing the HIV-1 receptor CD4 was propagated in Dulbecco's Modified Eagle Medium (Invitrogen, Carlsbad, Calif.) containing 10% fetal Bovine serum (FBS, Sigma, St. Louis , Mo.) and supplemented with 0.2 mg/mL Geneticin (Invitrogen, Carlsbad, Calif.). Virus-Single-round infectious reporter virus was produced by co-transfecting human embryonic Kidney 293 cells with an HIV-1 envelope DNA expression vector and a proviral cDNA containing an envelope deletion mutation and the luciferase reporter gene inserted in place of HIV-1 nef sequences (Chen et al, Ref. 41). Transfections were performed using lipofectAMINE PLUS reagent as described by the manufacturer (Invitrogen, Carlsbad, Calif.). Experiment • 1. HeLa CD4 cells were plated in 96 well plates at a cell density of 1×10^4 cells per well in 100 μl Dulbecco's Modified Eagle Medium containing 10% fetal Bovine serum and incubated overnight. • 2. Compound was added in a 2 μl dimethylsulfoxide solution, so that the final assay concentration would be ≦10 μM. • 3. 100 μl of single-round infectious reporter virus in Dulbecco's Modified Eagle Medium was then added to the plated cells and compound at an approximate multiplicity of infection (MOI) of 0.01, resulting in a final volume of 200 μl per well. • 4. Virally-infected cells were incubated at 37 degrees Celsius, in a CO2 incubator, and harvested 72 h after infection. • 5. Viral infection was monitored by measuring luciferase expression from viral DNA in the infected cells using a luciferase reporter gene assay kit, as described by the manufacturer (Roche Molecular Biochemicals, Indianapolis, Ind.). Infected cell supernatants were removed and 50 μl of lysis buffer was added per well. After 15 minutes, 50 μl of freshly-reconstituted luciferase assay reagent was added per well. Luciferase activity was then quantified by measuring luminescence using a Wallac microbeta scintillation counter. • 6. The percent inhibition for each compound was calculated by quantifying the level of luciferase expression in cells infected in the presence of each compound as a percentage of that observed for cells infected in the absence of compound and subtracting such a determined value from 100. • 7. An EC50 provides a method for comparing the antiviral potency of the compounds of this disclosure. The effective concentration for fifty percent inhibition (EC50) was calculated with the Microsoft Excel Xlfit curve fitting software. For each compound, curves were generated from percent inhibition calculated at 10 different concentrations by using a four paramenter logistic model (model 205). Table 1 is the key for the data in Table 2. Results
With `COc1cnc(-c2cnccn2)c2[nH]cc(C(=O)C(=O)N3CCN(C(=N)c4ccccc4)C[C@@H]3C)c12` [AM-72], the EC50 was under 500 nM.

As to `COc1cnc(-n2cnc(C)n2)c2[nH]cc(C(=O)C(=O)N3CCN(/C(=N/C#N)c4ccccn4)CC3)c12` [AM-82], the EC50 was under 500 nM.

`C/N=C(\c1ccccc1)N1CCN(C(=O)C(=O)c2c[nH]c3c(-n4ccnn4)ncc(F)c23)CC1` [AM-69]: the half-maximal effective concentration (EC50) was under 500 nM.

Consider `O=C(C(=O)N1CCN(/C(=N/CCN2CCOCC2)c2ccccc2)CC1)c1c[nH]c2cccc(F)c12` [AM-23], for which the EC50 was over 500 nM.

In the case of `C/N=C(\c1ccccc1)N1CCN(C(=O)C(=O)c2c[nH]c3c(-n4cnc(C)n4)ncc(OC)c23)CC1` [AM-70], the EC50 is under 500 nM.

Regarding `N=C(c1ccccc1)N1CCN(C(=O)C(=O)c2c[nH]c3c(Br)ccc(F)c23)CC1` [AM-73], the EC50 was under 500 nM.

For the compound `CCCC/N=C(\c1ccccc1)N1CCN(C(=O)C(=O)c2c[nH]c3c(-n4ccnn4)ncc(F)c23)CC1` [AM-62], the EC50 is under 500 nM.

For `O=C(C(=O)N1CCN(/C(=N/CCOCCO)c2ccccc2)CC1)c1c[nH]c2cccc(F)c12` [AM-19], the EC50 was over 500 nM.

`COc1cnc(-n2cnc(C)n2)c2[nH]cc(C(=O)C(=O)N3CCN(/C(=N/C#N)c4ccccc4)CC3)c12` [AM-16]: the EC50 was under 500 nM.

In the case of `COc1ccc(Br)c2[nH]cc(C(=O)C(=O)N3CCN(/C(=N/S(C)(=O)=O)c4ccccc4)CC3)c12` [AM-07], the EC50 is under 500 nM.

Take `N#C/N=C(\c1ccccc1)N1CCN(C(=O)C(=O)c2c[nH]c3c(Br)ccc(F)c23)CC1` [AM-17]: the EC50 is under 500 nM.

For the compound `C/N=C(\c1ccccc1)N1CCN(C(=O)C(=O)c2c[nH]c3ccccc23)CC1` [AM-12], the EC50 was over 500 nM.

Consider `COc1cnc(-n2ccc(-c3ccc(C#N)cc3)n2)c2[nH]cc(C(=O)C(=O)N3CCN(/C(=N/C#N)c4ccccc4)CC3)c12` [AM-11], for which the EC50 was under 500 nM.

As to `COc1cnc(-n2ccnn2)c2[nH]cc(C(=O)C(=O)N3CCN(/C(=N/C#N)c4ccccc4)CC3)c12` [AM-24], the EC50 was under 500 nM.

Regarding `C[C@@H]1CN(/C(=N/C#N)c2ccccc2)CCN1C(=O)C(=O)c1c[nH]c2c(-n3ccnn3)ncc(F)c12` [AM-25, (((R)-4-(2-(4-fluoro-7-(1H-1,2,3-triazol-1-yl)-1H-pyrrolo[2,3-c]pyridin-3-yl)-2-oxoacetyl)-3-methylpiperazin-1-yl)(phenyl)methylene)cyanamide], the EC50 is under 500 nM.

As to `C[C@H]1CN(/C(=N/C#N)c2ccccc2)CCN1C(=O)C(=O)c1c[nH]c2c(Br)ccc(F)c12` [AM-76], the EC50 is under 500 nM.

As to `C[C@H]1CN(/C(=N/C#N)c2ccccc2)CCN1C(=O)C(=O)c1c[nH]c2c(-n3ccnn3)ncc(F)c12` [AM-65], the EC50 was under 500 nM.

For `O=C(C(=O)N1CCN(/C(=N/CCN2CCOCC2)c2ccccc2)CC1)c1c[nH]c2c(Br)ccc(F)c12` [AM-06], the EC50 was under 500 nM.

For `CC/N=C(\c1ccccc1)N1CCN(C(=O)C(=O)c2c[nH]c3c(-n4ccnn4)ncc(F)c23)CC1` [AM-59], the EC50 was under 500 nM.

In the case of `CCC/N=C(\c1ccccc1)N1CCN(C(=O)C(=O)c2c[nH]c3ccccc23)CC1` [AM-13], the concentration for a half-maximal effect (EC50) is over 500 nM.

For `O=C(C(=O)N1CCN(/C(=N/C2CCCC2)c2ccccc2)CC1)c1c[nH]c2c(-n3ccnn3)ncc(F)c12` [AM-61], the EC50 is under 500 nM.

`O=C(C(=O)N1CCN(/C(=N/CCOCCO)c2ccccc2)CC1)c1c[nH]c2c(-n3ccnn3)ncc(F)c12` [AM-60]: the EC50 was under 500 nM.

On to `N#C/N=C(\c1ccccc1)N1CCN(C(=O)C(=O)c2c[nH]c3c(F)ccc(F)c23)CC1` [AM-30], for which the EC50 is under 500 nM.

For the compound `C[C@@H]1CN(C(=N)c2ccccc2)CCN1C(=O)C(=O)c1c[nH]c2c(-n3ccnn3)ncc(F)c12` [AM-33], the EC50 was under 500 nM.

As for `CC(C)/N=C(\c1ccccc1)N1CCN(C(=O)C(=O)c2c[nH]c3c(-n4ccnn4)ncc(F)c23)CC1` [AM-64], the EC50 was under 500 nM.

As for `O=C(C(=O)N1CCN(/C(=N/C2CCCCC2)c2ccccc2)CC1)c1c[nH]c2c(-n3ccnn3)ncc(F)c12` [AM-63], the EC50 was under 500 nM.

As for `N#C/N=C(\c1ccccc1)N1CCN(C(=O)C(=O)c2c[nH]c3c(-n4ccnn4)ncc(F)c23)CC1` [AM-10, ((4-(2-(4-fluoro-7-(1H-1,2,3-triazol-1-yl)-1H-pyrrolo[2,3-c]pyridin-3-yl)-2-oxoacetyl)piperazin-1-yl)(phenyl)methylene)cyanamide], the EC50 is under 500 nM.

For `CCc1ncn(-c2ncc(OC)c3c(C(=O)C(=O)N4CCN(/C(=N/C#N)c5ccccc5)CC4)c[nH]c23)n1` [AM-53], the EC50 is under 500 nM.

`CN(C)S(=O)(=O)/N=C(\c1ccccc1)N1CCN(C(=O)C(=O)c2c[nH]c3cccc(F)c23)CC1` [AM-26]: the EC50 was over 500 nM.

In the case of `CN(C)S(=O)(=O)/N=C(\c1ccccc1)N1CCN(C(=O)C(=O)c2c[nH]c3ccccc23)CC1` [AM-04], the EC50 was under 500 nM.

Take `N=C(c1ccccc1)N1CCN(C(=O)C(=O)c2c[nH]c3cccc(F)c23)CC1` [AM-01, 1-(4-fluoro-1H-indol-3-yl)-2-(4-(imino(phenyl)methyl)piperazin-1-yl)ethane-1,2-dione]: the EC50 was under 500 nM.

On to `CS(=O)(=O)/N=C(\c1ccccc1)N1CCN(C(=O)C(=O)c2c[nH]c3c(-n4ccnn4)ncc(F)c23)CC1` [AM-68], for which the EC50 was under 500 nM.

Consider `CC1(C)OB(c2ccc(NC(=O)/N=C(\c3ccccc3)N3CCN(C(=O)C(=O)c4c[nH]c5cccc(F)c45)CC3)cc2)OC1(C)C` [AM-50], for which the EC50 is over 500 nM.

Turning to `N=C(c1ccccn1)N1CCN(C(=O)C(=O)c2c[nH]c3c(-n4ccnn4)ncc(F)c23)CC1` [AM-54], the EC50 is under 500 nM.

Regarding `O=C(C(=O)N1CCN(/C(=N/c2cccnc2)c2ccccc2)CC1)c1c[nH]c2cccc(F)c12` [AM-22], the EC50 is over 500 nM.

Consider `N#C/N=C(\c1ccccn1)N1CCN(C(=O)C(=O)c2c[nH]c3c(-n4ccnn4)ncc(F)c23)CC1` [AM-81], for which the EC50 is under 500 nM.

Take `C/N=C(\c1ccccc1)N1CCN(C(=O)C(=O)c2c[nH]c3cccc(F)c23)CC1` [AM-18]: the EC50 is over 500 nM.

With `COc1cnc(-n2ccnn2)c2[nH]cc(C(=O)C(=O)N3CCN(C(=N)c4ccccc4)CC3)c12` [AM-34], the 50% effective concentration (EC50) was under 500 nM.

As to `C[C@H]1CN(/C(=N/C#N)c2ccccc2)CCN1C(=O)C(=O)c1c[nH]c2c(-c3cc4ccccc4s3)ccc(F)c12` [AM-80], the EC50 was under 500 nM.

Consider `C[C@H]1CN(/C(=N/C#N)c2ccccc2)CCN1C(=O)C(=O)c1c[nH]c2c(-c3ccccn3)ccc(F)c12` [AM-79], for which the EC50 was under 500 nM.

Take `CCN(CC)CC/N=C(\c1ccccc1)N1CCN(C(=O)C(=O)c2c[nH]c3c(Br)ccc(F)c23)CC1` [AM-05]: the EC50 was under 500 nM.

Take `CS(=O)(=O)/N=C(\c1ccccc1)N1CCN(C(=O)C(=O)c2c[nH]c3cccc(F)c23)CC1` [AM-09]: the EC50 was under 500 nM.

As for `CC(C)NC(=O)/N=C(\c1ccccc1)N1CCN(C(=O)C(=O)c2c[nH]c3cccc(F)c23)CC1` [AM-36], the EC50 is over 500 nM.

As for `C[C@H]1CN(/C(=N/C#N)c2ccccc2)CCN1C(=O)C(=O)c1c[nH]c2c(-c3nccs3)ccc(F)c12` [AM-78], the EC50 is under 500 nM.

For the compound `N#C/N=C(\c1ccccc1)N1CCN(C(=O)C(=O)c2c[nH]c3cc(F)cc(F)c23)CC1` [AM-28], the EC50 is under 500 nM.
